Measured values: US20210236529A1, “MULTI-TARGETED COMPOSITIONS FOR MITIGATING ACUTE RESPIRATORY DISTRESS SYNDROME” (priority 2020, published 2021)
pEC50: −log10 of the molar value.

Tests used:
IL-6 = IL-6 in conditioned medium of 3D ciliated airway tissues, sandwich ELISA; format: cell-based, human; conditions: LPS 1 μg/ml, 72 h total contact
Procedure: (§1) A second study was undertaken to assess the ability of the select hydrolysable tannins to inhibit select pro-inflammatory interleukins, namely IL-6 and IL-8. The study was conducted using reconstituted human ciliated airway tissue. Specifically, Ninety Six 3D ciliated airway tissues (cat. #34839) were obtained from Mattek (Ashland, Mass.) and were cultured in Assay Media (cat. #031921JRD, MatTek). The tissue samples were rinsed twice before incubation with the MTT reagents. The test materials themselves were solubilized and diluted in sterile distilled water and added to the feeder chamber medium contacting the basal side of the tissues on Day 1. The test material was also applied topically on Day 2 together with LPS (added where indicated at 1 μg/ml, from Escherichia coli 0113, Cayman Chemical Company, Ann Arbor, Mich.) for total contact time of 72 h. The experiments were tested in triplicates or duplicates.
(§2) Following the exposures to the test materials, 1L-6 and IL-8 were quantified in the tissue culture—conditioned medium by sandwich ELISA (Table 4A and 4B). The effect of the test materials on mitochondrial metabolism was measured by the MTT assay, which quantifies the activity of mitochondrial dehydrogenases, such as succinate dehydrogenase, implicated in the respiratory electron transport chain in mitochondria. The MTT conversion values were also used to standardize the IL-6, IL-8 output data to tissue viability.

IL-8 = IL-8 in conditioned medium of 3D ciliated airway tissues, sandwich ELISA; format: cell-based, human; conditions: LPS 1 μg/ml, 72 h total contact
Procedure: as §1, §2

[1] = biological target: SARS-CoV-2 RNA Polymerase (RdRp) (Severe acute respiratory syndrome coronavirus 2, UniProt P0DTD1); assay: SARS-CoV-2 RNA Polymerase (RdRp) Assay Kit, fluorescent enzymatic activity in vitro; format: biochemical; conditions: for RdRp activity, % of Control: vs water control; for inhibition of SARS-CoV-2 RNA replication (in words): summary of Tables 1 and 2
Covid-19 patients = conditions: after treatment; preliminary findings, 21 patients; cited from earlier work
[2] = 10 μgm/ml, standardized to MTT viability
[3] = 10 μg/ml, standardized to MTT viability
[4] = 100 μg test material (0.209-0.213 μM)

Row | Compound | IL-6, % of Control (IL-6; 10 μM) | IL-6, % of Control (IL-6; 50 μM) | IL-8, % of Control (IL-8; 10 μM) | IL-8, % of Control (IL-8; 50 μM) | pEC50 [1] | RdRp activity, % of Control ([1]; 10 μM) | RdRp activity, % of Control ([1]; 50 μM) | inhibition of SARS-CoV-2 RNA replication (in words) [1] | IL-6, % of Control (IL-6; [2]) | IL-6, % of Control (IL-6; 50 μgm/ml) | IL-6, % of Control (IL-6; 200 μgm/ml) | IL-8, % of Control (IL-8; [3]) | IL-8, % of Control (IL-8; 50 μg/ml) | IL-8, % of Control (IL-8; 200 μg/ml) | RdRp activity, % of Control ([1]; 10 μg test material) | RdRp activity, % of Control ([1]; 50 μg test material) | RdRp activity, % of Control [1, 4] | patients experiencing a reduced need for supplemental oxygen (Covid-19 patients) | IL-6, % of Control (IL-6; 100 μgm/ml) | IL-8, % of Control (IL-8; 100 μg/ml)
1 | Cc1cccc(C)c1OCC(=O)N[C@@H](Cc1ccccc1)[C@@H](O)C[C@H](Cc1ccccc1)NC(=O)[C@H](C(C)C)N1CCCNC1=O [Lopinavir, reference compound] | 73 % of Control | 81 % of Control | 103 % of Control | 104 % of Control | < 4.30 | 91 % of Control | 80 % of Control | neither Lopinavir, a commercial inhibitor of viral RNA replication, nor chebulic acid manifested effective inhibition | – | – | – | – | – | – | – | – | – | – | – | –
2 | O=C(O)C[C@@H]1C(=O)O[C@H]2[C@@H]3OC(=O)c4cc(O)c(O)c(O)c4-c4c(cc(O)c(O)c4O)C(=O)OC[C@H]2O[C@@H](OC(=O)c2cc(O)c(O)c(O)c2)[C@@H]3OC(=O)c2cc(O)c(O)c3c2[C@H]1[C@H](O)C(=O)O3 [Chebulagic acid] | – | – | – | – | – | – | – | marked inhibition | 70 % of Control | 40 % of Control | 5 % of Control | 112 % of Control | 100 % of Control | 66 % of Control | 35 % of Control | 10 % of Control | 8 % of Control | – | – | –
3 | Actemra: a humanized anti-IL-6R monoclonal antibody | – | – | – | – | – | – | – | – | – | – | – | – | – | – | – | – | – | 75% | – | –
4 | O=C(OC[C@H]1O[C@@H](OC(=O)c2cc(O)c(O)c(O)c2)[C@H](OC(=O)c2cc(O)c(O)c(O)c2)[C@@H](OC(=O)c2cc(O)c(O)c(O)c2)[C@@H]1OC(=O)c1cc(O)c(O)c(O)c1)c1cc(O)c(O)c(O)c1 [Pentagallolyl glucose, Pentagalloyl glucose] | – | – | – | – | – | – | – | marked inhibition | 91 % of Control | 64 % of Control | 0 % of Control | 100 % of Control | 104 % of Control | 0 % of Control | 32 % of Control | 12 % of Control | 4 % of Control | – | – | –
5 | O=C(O)C[C@H]1C(=O)O[C@H]2[C@H](OC(=O)c3cc(O)c(O)c(O)c3)[C@@H](OC(=O)c3cc(O)c(O)c4c3[C@H]1[C@H](O)C(=O)O4)[C@H](OC(=O)c1cc(O)c(O)c(O)c1)O[C@@H]2COC(=O)c1cc(O)c(O)c(O)c1 [Chebulinic acid] | – | – | – | – | – | – | – | marked inhibition | 131 % of Control | 96 % of Control | 18 % of Control | 114 % of Control | 109 % of Control | 101 % of Control | 25 % of Control | 14 % of Control | 7 % of Control | – | – | –
6 | O=C(O)C[C@H](C(=O)O)[C@H]1c2c(cc(O)c(O)c2O)C(=O)O[C@@H]1C(=O)O [Chebulic acid, reference compound] | – | – | – | – | – | – | – | neither Lopinavir, a commercial inhibitor of viral RNA replication, nor chebulic acid manifested effective inhibition | 68 % of Control | 106 % of Control | – | 96 % of Control | 108 % of Control | – | 105 % of Control | 96 % of Control | – | – | 78 % of Control | 111 % of Control
